Reference: PubChem BioAssay (NCI)
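Assay format: 96-well plates, 48-hour exposure. TGI is the concentration that stops growth completely.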

Tests used:
Assay in all cases: NCI-60 cell line screen, 48 h
A549 NSCLC = system: A549 NSCLC
CAKI-1 renal = system: CAKI-1 renal
COLO 205 colon = system: COLO 205 colon
DU-145 prostate = system: DU-145 prostate
HCT-116 colon = system: HCT-116 colon
HL-60(TB) leukemia = system: HL-60(TB) leukemia
HT29 colon = system: HT29 colon
IGROV1 ovarian = system: IGROV1 ovarian
KM12 colon = system: KM12 colon
LOX IMVI melanoma = system: LOX IMVI melanoma
MDA-MB-231 breast = system: MDA-MB-231 breast
MDA-MB-435 = system: MDA-MB-435
NCI-H522 lung = system: NCI-H522 lung
OVCAR-3 ovarian = system: OVCAR-3 ovarian
PC-3 prostate = system: PC-3 prostate
RXF 393 renal = system: RXF 393 renal
SK-MEL-2 melanoma = system: SK-MEL-2 melanoma
SW-620 colon = system: SW-620 colon
T-47D breast = system: T-47D breast
UACC-257 melanoma = system: UACC-257 melanoma

SMILES | TGI (A549 NSCLC) | TGI (CAKI-1 renal) | TGI (COLO 205 colon) | TGI (DU-145 prostate) | TGI (HCT-116 colon) | TGI (HL-60(TB) leukemia) | TGI (HT29 colon) | TGI (IGROV1 ovarian) | TGI (KM12 colon) | TGI (LOX IMVI melanoma) | TGI (MDA-MB-231 breast) | TGI (MDA-MB-435) | TGI (NCI-H522 lung) | TGI (OVCAR-3 ovarian) | TGI (PC-3 prostate) | TGI (RXF 393 renal) | TGI (SK-MEL-2 melanoma) | TGI (SW-620 colon) | TGI (T-47D breast) | TGI (UACC-257 melanoma)
COC(=O)C(Cc1c(C2Nc3ccccc3C2CC(NC(C)=O)C(=O)OC)[nH]c2ccccc12)NC(C)=O (stereo not given) | > 100 µM | > 100 µM | > 100 µM | > 100 µM | > 100 µM | > 100 µM | > 100 µM | > 100 µM | > 100 µM | > 100 µM | > 100 µM | > 100 µM | > 100 µM | > 100 µM | > 100 µM | > 100 µM | > 100 µM | > 100 µM | > 100 µM | > 100 µM
CCC1c2[nH]c3ccccc3c2C[C@H]2C(=O)NC(CCCCNC(=O)OC(C)(C)C)C(=O)N12 (stereo not given in full) | > 100 µM | 70.4 µM | 66.9 µM | > 100 µM | 94.4 µM | 59.6 µM | 99.3 µM | > 100 µM | 44.7 µM | 54.7 µM | 99.4 µM | 44.3 µM | 50.9 µM | 63.4 µM | 58.7 µM | > 100 µM | 57.8 µM | > 100 µM | > 100 µM | 66.8 µM
CCOC(=O)c1c(-c2ccccc2)nc2c(OC)nccn12 | > 100 µM | > 100 µM | > 100 µM | > 100 µM | > 100 µM | > 100 µM | > 100 µM | > 100 µM | > 100 µM | > 100 µM | > 100 µM | > 100 µM | > 100 µM | > 100 µM | > 100 µM | 80.9 µM | > 100 µM | > 100 µM | > 100 µM | > 100 µM
COC(=O)c1cnn2c1ccc1ccccc12 | > 100 µM | > 100 µM | > 100 µM | > 100 µM | > 100 µM | > 100 µM | > 100 µM | > 100 µM | > 100 µM | > 100 µM | > 100 µM | > 100 µM | > 100 µM | > 100 µM | > 100 µM | > 100 µM | > 100 µM | > 100 µM | > 100 µM | > 100 µM
COc1c(O)c(O)c2c(c1O)C(=O)c1cc(C)cc(O)c1C2=O | > 100 µM | > 100 µM | 93.2 µM | > 100 µM | > 100 µM | > 100 µM | > 85.4 µM | > 100 µM | > 100 µM | > 100 µM | 42 µM | > 100 µM | 48.1 µM | > 100 µM | > 100 µM | > 100 µM | > 100 µM | > 100 µM | > 100 µM | > 100 µM
CSc1ccc(-c2cc(-c3nc4ccccc4[nH]3)nc(N)c2C#N)cc1 | > 100 µM | 54.4 µM | 34.7 µM | 66.9 µM | 42.7 µM | 48.9 µM | 56.7 µM | 55.9 µM | 71.2 µM | 44 µM | 36.1 µM | 47.2 µM | 46.8 µM | 43.1 µM | 98.7 µM | 24.7 µM | 34.2 µM | > 100 µM | 54.7 µM | 39.4 µM
CCOC(=O)c1[nH]cc(C)c1-c1c[nH]c2ccccc12 | > 100 µM | > 100 µM | 58.9 µM | > 100 µM | > 53.2 µM | > 100 µM | > 82.6 µM | > 100 µM | > 100 µM | 40.2 µM | > 58.9 µM | > 100 µM | > 81.8 µM | > 76.8 µM | > 82.7 µM | > 80 µM | > 93 µM | > 100 µM | > 100 µM | > 100 µM
CCOC(=O)c1c[nH]cc1-c1cn(S(=O)(=O)c2ccccc2)cc1C | > 100 µM | 48.4 µM | 42.4 µM | > 100 µM | 58.9 µM | > 100 µM | 52.8 µM | 77.7 µM | 49 µM | 71.9 µM | > 100 µM | > 10 µM | 46.4 µM | 61.8 µM | 56.3 µM | > 100 µM | > 100 µM | > 10 µM | > 100 µM | 37.6 µM
CN=C(N)/N=C(\N)Nc1cc2ccccc2c2ccccc12 | 30.8 µM | 31.2 µM | 28.2 µM | 32.3 µM | 26 µM | 19.8 µM | 32.9 µM | 35.5 µM | 34.6 µM | 29.7 µM | 26.2 µM | 32.4 µM | 26.2 µM | 35.8 µM | 29.5 µM | 31.9 µM | 32.3 µM | 34 µM | 40.5 µM | 30.9 µM
O=C1N=NC(=O)N1c1cc(C(F)(F)F)cc(C(F)(F)F)c1 | 12 µM | 10.2 µM | 3.35 µM | > 40 µM | 12.2 µM | > 100 µM | 8.1 µM | 14.8 µM | 18.2 µM | 11.7 µM | 6.55 µM | 33.2 µM | 9.13 µM | > 23 µM | 12.8 µM | 12.4 µM | 5.57 µM | > 45.6 µM | > 30.2 µM | 12.2 µM
C=C(C)[C@H]1C[C@@H]2O[C@@](O)(/C(C)=C\C(=O)/C=C(/C)C[C@H]3OC(=O)[C@@]24O[C@H]34)[C@@H]1O | > 100 µM | > 100 µM | > 100 µM | > 100 µM | > 100 µM | > 100 µM | > 100 µM | > 100 µM | > 100 µM | > 100 µM | > 100 µM | > 100 µM | > 100 µM | > 100 µM | > 100 µM | 97.6 µM | > 100 µM | > 100 µM | > 100 µM | > 100 µM
